This note sets out measurements from patent publication US11220504B2, “Pyrrolo[3,2-d] pyrimidine derivatives for the treatment of viral infections and other diseases” (JANSSEN SCIENCES IRELAND UNLIMITED COMPANY, priority 2012, dated 2022).

The target of test [1] is T1, human TLR7 (Homo sapiens, UniProt Q9NYK1).
T1 construct: expressed in transfected cells; host or cells: HEK293 cells, transient transfection with CMV-TLR7 plasmid and NFκB-luc plasmid
T1 sequence (Q9NYK1 27-1049): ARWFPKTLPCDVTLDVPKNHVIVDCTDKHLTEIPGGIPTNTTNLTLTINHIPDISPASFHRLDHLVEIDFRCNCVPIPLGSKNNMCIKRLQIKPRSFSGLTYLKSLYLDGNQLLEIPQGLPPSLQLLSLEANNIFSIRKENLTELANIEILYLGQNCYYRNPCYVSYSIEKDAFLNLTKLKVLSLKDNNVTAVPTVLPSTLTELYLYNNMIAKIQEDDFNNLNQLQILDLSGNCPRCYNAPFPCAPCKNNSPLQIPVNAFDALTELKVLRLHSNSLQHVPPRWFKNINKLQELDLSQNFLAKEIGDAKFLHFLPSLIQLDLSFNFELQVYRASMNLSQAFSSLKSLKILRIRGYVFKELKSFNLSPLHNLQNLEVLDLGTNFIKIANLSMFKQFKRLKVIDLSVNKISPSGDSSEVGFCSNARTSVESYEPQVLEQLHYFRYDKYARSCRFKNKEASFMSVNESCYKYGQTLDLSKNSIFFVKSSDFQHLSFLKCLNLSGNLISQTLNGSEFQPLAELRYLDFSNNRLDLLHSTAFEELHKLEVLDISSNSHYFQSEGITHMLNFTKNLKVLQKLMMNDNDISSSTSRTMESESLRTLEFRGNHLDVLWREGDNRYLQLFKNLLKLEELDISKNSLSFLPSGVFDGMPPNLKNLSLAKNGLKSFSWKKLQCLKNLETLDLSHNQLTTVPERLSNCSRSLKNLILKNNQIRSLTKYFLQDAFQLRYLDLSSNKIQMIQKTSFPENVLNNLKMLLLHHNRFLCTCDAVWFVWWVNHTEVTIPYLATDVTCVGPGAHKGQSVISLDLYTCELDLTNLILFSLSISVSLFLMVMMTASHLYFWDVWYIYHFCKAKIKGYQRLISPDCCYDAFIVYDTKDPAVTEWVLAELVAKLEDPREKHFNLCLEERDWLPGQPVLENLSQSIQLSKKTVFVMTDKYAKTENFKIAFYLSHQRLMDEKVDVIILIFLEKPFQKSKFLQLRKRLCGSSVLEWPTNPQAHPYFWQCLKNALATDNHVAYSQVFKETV
Briefly: TLR7 cellular reporter assay (HEK293, NFκB-luc). The class given is cell-based. As to conditions: HEK293 cells transfected with CMV-TLR7 and NFκB-luc, 6 hours incubation; lowest effective concentration. The procedure:
(§1) The ability of compounds to activate human TLR7 and/or TLR8 was assessed in a cellular reporter assay using HEK293 cells transiently transfected with a TLR7 or TLR8 expression vector and NFκB-luc reporter construct.
(§2) Briefly, HEK293 cells were grown in culture medium (DMEM supplemented with 10% FCS and 2 mM Glutamine). […] Thirty microliters of cells were then dispensed into each well in 384-well plates, where 10 μL of compound in 4% DMSO was already present. Following 6 hours incubation at 37° C., 5% CO2, the luciferase activity was determined by adding 15 μL of Steady Lite Plus substrate (Perkin Elmer) to each well and readout performed on a ViewLux ultraHTS microplate imager (Perkin Elmer). Dose response curves were generated from measurements performed in quadruplicates.

Test [2] addresses T2, human TLR8 (Homo sapiens, UniProt Q9NR97).
T2 construct: expressed in transfected cells; host or cells: HEK293 cells, transient transfection with TLR8 plasmid and NFκB-luc plasmid
T2 sequence (Q9NR97 27-1041): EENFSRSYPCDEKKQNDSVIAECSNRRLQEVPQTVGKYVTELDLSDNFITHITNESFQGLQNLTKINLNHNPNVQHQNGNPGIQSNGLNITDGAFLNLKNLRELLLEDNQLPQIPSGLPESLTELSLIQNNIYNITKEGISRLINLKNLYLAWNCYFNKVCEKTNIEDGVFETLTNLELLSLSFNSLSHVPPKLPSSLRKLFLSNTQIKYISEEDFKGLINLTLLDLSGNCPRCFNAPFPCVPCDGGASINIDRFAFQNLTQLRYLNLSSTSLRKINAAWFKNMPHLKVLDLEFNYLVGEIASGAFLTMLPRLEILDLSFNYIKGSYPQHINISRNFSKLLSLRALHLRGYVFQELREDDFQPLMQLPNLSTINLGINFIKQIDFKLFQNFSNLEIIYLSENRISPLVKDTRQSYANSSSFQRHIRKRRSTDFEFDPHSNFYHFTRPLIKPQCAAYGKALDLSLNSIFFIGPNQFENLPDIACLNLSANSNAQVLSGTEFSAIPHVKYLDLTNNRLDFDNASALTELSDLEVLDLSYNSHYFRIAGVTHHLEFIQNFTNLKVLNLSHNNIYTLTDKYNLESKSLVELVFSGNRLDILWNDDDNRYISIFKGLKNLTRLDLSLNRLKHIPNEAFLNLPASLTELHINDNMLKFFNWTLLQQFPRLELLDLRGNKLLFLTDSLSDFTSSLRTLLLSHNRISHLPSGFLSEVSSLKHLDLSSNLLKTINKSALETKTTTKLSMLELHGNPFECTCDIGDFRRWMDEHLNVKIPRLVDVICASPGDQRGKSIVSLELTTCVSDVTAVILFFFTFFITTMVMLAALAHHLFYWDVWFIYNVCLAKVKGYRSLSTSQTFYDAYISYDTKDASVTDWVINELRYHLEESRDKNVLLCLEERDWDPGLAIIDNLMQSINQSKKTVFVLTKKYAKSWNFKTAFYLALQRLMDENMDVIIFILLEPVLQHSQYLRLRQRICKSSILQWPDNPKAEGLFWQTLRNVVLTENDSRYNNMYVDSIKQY
Briefly: TLR8 cellular reporter assay (HEK293, NFκB-luc). Particulars: HEK293 cells transfected with CMV-TLR8 and NFκB-luc, 6 hours incubation; lowest effective concentration. It counts as cell-based. The procedure: as §1, §2
(In general: A reporter such as luciferase makes a cellular process visible.)

The test system of test [3] is interferon-stimulated responsive elements (ISRE). The experiment in a line: Activation of ISRE promoter elements by conditioned media from PBMC (HEK-ISREluc). As to conditions: Homo sapiens; conditioned media from PBMC transferred to HEK-ISREluc cells, 24 hours; lowest effective concentration; read-out: PBMC LEC. The class given is cell-based, human. On the procedure: The potential of compounds to induce IFN-I was also evaluated by measuring the activation of interferon-stimulated responsive elements (ISRE) by conditioned media from PBMC. The ISRE element of sequence […] (SEQ. ID NO:1) is highly responsive to the STAT1-STAT2-IRF 9 transcription factor, activated upon binding of IFN-I to their receptor IFNAR (Clontech, PT3372-5W). […] A HEK293 cell line stably transfected with pISRE-Luc (HEK-ISREluc) was established to profile of the conditioned PBMC cell culture media.
Briefly, PBMCs were prepared from buffy coats of at least two donors using a standard Ficoll centrifugation protocol. Isolated PBMCs were resuspended in RPMI medium supplemented with 10% human AB serum and 2×10^5 cells/well were dispensed into 384-well plates containing compounds (70 μL total volume). After overnight incubation, 10 μL of supernatant was transferred to 384-well plates containing 5×10^3 HEK-ISREluc cells/well in 30 μL (plated the day before). Following 24 hours of incubation, activation of the ISRE elements was measured by assaying luciferase activity using 40 μL/well Steady Lite Plus substrate (Perkin Elmer) and measured with ViewLux ultraHTS microplate imager (Perkin Elmer). The stimulating activity of each compound on the HEK-ISREluc cells was reported as LEC value, defined as the compound concentration applied to the PBMCs resulting in a luciferase activity at least two fold above the standard deviation of the assay. The LEC in turn indicates the degree of ISRE activation on transfer of a defined amount of PBMC culture medium. Recombinant interferon α-2a (Roferon-A) was used as a standard control compound.

The structures appear in SMILES notation. A value given as a limit tells only on which side of the number the result lay.

Consider `COCCn1ccc2nc(N)nc(N[C@H](C)c3ccccn3)c21` (single isomer, unassigned) [Compound 151], for which the “TLR7 LEC” value in test [1] stood at 12.8 µM. In addition, the “TLR8 LEC” value in test [2] is greater than 25 µM. Moreover, in test [3], the minimal effective concentration worked out at 2.58 µM.
As for `COCCn1ccc2nc(N)nc(N[C@@H](C)c3ccccn3)c21` (single isomer, unassigned) [Compound 152], the “TLR7 LEC” value in test [1] is 0.73 µM. Further, the “TLR8 LEC” value in test [2] is greater than 25 µM. Also, the minimal effective concentration in test [3] came out at 0.142 µM.
Regarding `C[C@@H](Nc1nc(N)nc2ccn(Cc3ccccn3)c12)c1ccccn1` (single isomer, unassigned) [Compound 194], in test [2], the “TLR8 LEC” value is greater than 25 µM.
In the case of `C[C@H](Nc1nc(N)nc2ccn(Cc3ccccn3)c12)c1ccccn1` (single isomer, unassigned) [Compound 195], the “TLR8 LEC” value in test [2] is greater than 25 µM.
For `CCCCNc1nc(N)nc2ccn(Cc3ccccc3Oc3ccccc3)c12` [Compound 2], the “TLR7 LEC” value in test [1] is 0.50 µM. Also, the “TLR8 LEC” value in test [2] was greater than 25 µM. The minimal effective concentration in test [3] amounted to 0.6 µM.
The like results for `CCCCNc1nc(N)nc2ccn(Cc3cc(F)ccc3Br)c12` [Compound 3] were, in that order, 2.6 µM, greater than 25 µM and 1.2 µM.
Turning to `Cc1cc(CNc2nc(N)nc3ccn(Cc4ccccn4)c23)no1` [Compound 89], the “TLR8 LEC” value in test [2] was greater than 25 µM.
Same read-out and setting: for `COCCNc1nc(N)nc2ccn(Cc3ccccn3)c12` [Compound 119] the value was greater than 25 µM; for `Cc1cc(CNc2nc(N)nc3ccn(Cc4ccc(C(F)(F)F)cn4)c23)no1` [Compound 122], greater than 25 µM.
Same read-out and setting: the value for `COc1ccc(Cn2ccc3nc(N)nc(NCc4cc(C)on4)c32)nc1OC` [Compound 124] was greater than 22 µM; that for `Cc1cc(CNc2nc(N)nc3ccn(Cc4ncccc4F)c23)no1` [Compound 125] was greater than 25 µM; that for `Nc1nc(NCc2cc(C3CC3)on2)c2c(ccn2Cc2ccccn2)n1` [Compound 126] was greater than 25 µM.
Take `CC(C)c1cc(CNc2nc(N)nc3ccn(Cc4ccccn4)c23)no1` [Compound 127]: the “TLR8 LEC” value in test [2] is greater than 25 µM.
The same measure, in the same setting: for `COc1cccc(Cn2ccc3nc(N)nc(NCc4cc(C)on4)c32)n1` [Compound 131] the value was 24.6 µM; for `Nc1nc(NCc2nccs2)c2c(ccn2Cc2ccccn2)n1` [Compound 136], greater than 25 µM; for `COCCCNc1nc(N)nc2ccn(Cc3ccccn3)c12` [Compound 138], greater than 25 µM.
As for `CCOCCNc1nc(N)nc2ccn(Cc3ccccn3)c12` [Compound 140], in test [2], the “TLR8 LEC” value was greater than 25 µM.
Same read-out and setting: the value for `CCC(O)CNc1nc(N)nc2ccn(Cc3ccccn3)c12` (centres unmarked) [Compound 141] was greater than 25 µM.
In the case of `Nc1nc(NCc2ncco2)c2c(ccn2Cc2ccccn2)n1` [Compound 142], the “TLR8 LEC” value in test [2] was greater than 25 µM.
On the same count and under the same terms, the value for `Cc1cc(CNc2nc(N)nc3ccn(Cc4ccc(F)cn4)c23)no1` [Compound 144] was greater than 25 µM; that for `Cc1cc(CNc2nc(N)nc3ccn(Cc4cc(C(F)(F)F)ccn4)c23)no1` [Compound 145] was greater than 25 µM; that for `Nc1nc(NCc2ccon2)c2c(ccn2Cc2ccccn2)n1` [Compound 155] was greater than 25 µM.
Regarding `Cc1cc(CNc2nc(N)nc3ccn(Cc4ncccc4Cl)c23)no1` [Compound 156], the “TLR8 LEC” value in test [2] was greater than 25 µM.
As to `Cc1cc(CNc2nc(N)nc3ccn(Cc4cc(Cl)ccn4)c23)no1` [Compound 158], the “TLR8 LEC” value in test [2] is greater than 25 µM.
`COCCNc1nc(N)nc2ccn(CC(=O)N(C)C)c12` [Compound 166]: the “TLR7 LEC” value in test [1] turned out to be 4.88 µM.
For the molecule `COc1cccnc1Cn1ccc2nc(N)nc(NCc3cc(C)on3)c21` [Compound 170], the “TLR8 LEC” value in test [2] is greater than 25 µM.
Consider `COc1ccc(Cn2ccc3nc(N)nc(NCc4cc(C)on4)c32)nc1` [Compound 171], for which, in test [1], the “TLR7 LEC” value stood at 0.02 µM. In addition, the “TLR8 LEC” value in test [2] is greater than 25 µM.
For `Cc1nc(CNc2nc(N)nc3ccn(Cc4ccccn4)c23)cs1` [Compound 174], in test [2], the “TLR8 LEC” value was greater than 25 µM.
Consider `Cc1cc(CNc2nc(N)nc3ccn(Cc4ccccn4)c23)on1` [Compound 184], for which the “TLR8 LEC” value in test [2] was greater than 25 µM.
Still for that read-out and setting: the value for `Cc1ccc(CNc2nc(N)nc3ccn(Cc4ccccn4)c23)nc1` [Compound 189] was greater than 25 µM; that for `CC(Nc1nc(N)nc2ccn(Cc3ccccn3)c12)c1ccccn1` (centres unmarked) [Compound 190] was greater than 25 µM; that for `Cc1cnc(CNc2nc(N)nc3ccn(Cc4ccccn4)c23)o1` [Compound 191] was greater than 25 µM.
Take `Cc1cnc(CNc2nc(N)nc3ccn(Cc4ccccn4)c23)s1` [Compound 207]: in test [2], the “TLR8 LEC” value was found to be 23 µM.
The same measure, in the same setting: for `Cc1coc(CNc2nc(N)nc3ccn(Cc4ccccn4)c23)n1` [Compound 214] the value was greater than 25 µM; for `Cc1nnc(CNc2nc(N)nc3ccn(Cc4ccccn4)c23)o1` [Compound 216], greater than 25 µM.
